Reference: ChEMBL document CHEMBL5291721, “A preclinical secondary pharmacology resource illuminates target-adverse drug reaction associations of marketed drugs” (Nat Commun, 2023)

Tests used:
[1] = target: Beta-3 adrenergic receptor (Homo sapiens, UniProt P13945)
Estrogen receptor beta = Estrogen receptor beta (Homo sapiens, UniProt Q92731)
[2] = target: T1, Muscarinic acetylcholine receptor M2 (Homo sapiens, UniProt P08172)
T1 sequence (P08172 whole entry): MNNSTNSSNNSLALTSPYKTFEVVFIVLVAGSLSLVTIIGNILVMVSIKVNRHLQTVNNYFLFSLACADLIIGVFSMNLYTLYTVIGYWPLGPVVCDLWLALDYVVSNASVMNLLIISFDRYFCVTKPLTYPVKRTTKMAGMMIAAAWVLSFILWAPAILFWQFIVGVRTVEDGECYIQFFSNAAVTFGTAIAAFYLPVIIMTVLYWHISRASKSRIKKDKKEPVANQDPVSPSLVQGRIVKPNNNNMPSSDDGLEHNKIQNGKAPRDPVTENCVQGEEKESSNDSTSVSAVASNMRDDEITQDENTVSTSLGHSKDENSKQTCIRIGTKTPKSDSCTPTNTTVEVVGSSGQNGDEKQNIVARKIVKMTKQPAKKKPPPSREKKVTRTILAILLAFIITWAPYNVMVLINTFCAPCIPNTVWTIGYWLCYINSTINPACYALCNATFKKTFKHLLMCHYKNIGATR

Adenosine receptor A1 = target: T2, Adenosine receptor A1 (Homo sapiens, UniProt P30542)
T2 sequence (P30542 whole entry): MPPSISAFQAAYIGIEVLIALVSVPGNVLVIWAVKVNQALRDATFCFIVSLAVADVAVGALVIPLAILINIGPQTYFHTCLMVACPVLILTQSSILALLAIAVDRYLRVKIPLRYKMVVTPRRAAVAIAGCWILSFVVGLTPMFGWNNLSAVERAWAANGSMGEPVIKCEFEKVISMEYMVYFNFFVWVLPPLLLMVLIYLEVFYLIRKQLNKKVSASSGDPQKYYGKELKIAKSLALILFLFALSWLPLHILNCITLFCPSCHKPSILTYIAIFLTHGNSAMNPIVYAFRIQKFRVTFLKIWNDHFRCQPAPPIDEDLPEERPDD

Androgen receptor [3] = target: T3, Androgen receptor (Rattus norvegicus, UniProt P15207); type: functional
T3 sequence (P15207 whole entry): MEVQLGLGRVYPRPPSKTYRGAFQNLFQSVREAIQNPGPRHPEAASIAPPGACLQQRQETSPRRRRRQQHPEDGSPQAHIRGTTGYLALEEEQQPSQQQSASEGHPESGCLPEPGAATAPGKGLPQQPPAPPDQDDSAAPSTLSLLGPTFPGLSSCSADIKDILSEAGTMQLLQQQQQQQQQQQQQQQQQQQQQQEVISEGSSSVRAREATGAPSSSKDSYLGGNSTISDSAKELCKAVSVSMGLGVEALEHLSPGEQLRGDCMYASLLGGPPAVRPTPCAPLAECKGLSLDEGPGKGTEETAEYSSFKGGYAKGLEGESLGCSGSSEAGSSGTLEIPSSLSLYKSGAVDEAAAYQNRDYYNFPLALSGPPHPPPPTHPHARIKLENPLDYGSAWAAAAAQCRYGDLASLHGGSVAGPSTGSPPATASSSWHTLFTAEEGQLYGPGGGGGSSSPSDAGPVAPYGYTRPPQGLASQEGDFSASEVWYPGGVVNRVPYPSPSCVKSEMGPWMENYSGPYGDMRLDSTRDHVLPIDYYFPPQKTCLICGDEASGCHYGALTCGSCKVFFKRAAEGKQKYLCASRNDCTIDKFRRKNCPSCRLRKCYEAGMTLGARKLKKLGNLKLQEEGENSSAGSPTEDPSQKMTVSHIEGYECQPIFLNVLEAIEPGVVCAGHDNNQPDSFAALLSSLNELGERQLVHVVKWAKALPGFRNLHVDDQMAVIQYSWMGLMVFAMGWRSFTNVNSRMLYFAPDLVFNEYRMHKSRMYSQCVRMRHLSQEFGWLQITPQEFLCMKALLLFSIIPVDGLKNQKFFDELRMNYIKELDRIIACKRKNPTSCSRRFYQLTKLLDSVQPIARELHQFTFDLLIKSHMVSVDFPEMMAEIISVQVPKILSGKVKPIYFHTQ

Androgen receptor [4] = target: T3, Androgen receptor; type: functional; remark: listed apart in the source
[5] = target: T4, Peroxisome proliferator-activated receptor gamma (Homo sapiens, UniProt P37231); type: functional
T4 sequence (P37231 whole entry): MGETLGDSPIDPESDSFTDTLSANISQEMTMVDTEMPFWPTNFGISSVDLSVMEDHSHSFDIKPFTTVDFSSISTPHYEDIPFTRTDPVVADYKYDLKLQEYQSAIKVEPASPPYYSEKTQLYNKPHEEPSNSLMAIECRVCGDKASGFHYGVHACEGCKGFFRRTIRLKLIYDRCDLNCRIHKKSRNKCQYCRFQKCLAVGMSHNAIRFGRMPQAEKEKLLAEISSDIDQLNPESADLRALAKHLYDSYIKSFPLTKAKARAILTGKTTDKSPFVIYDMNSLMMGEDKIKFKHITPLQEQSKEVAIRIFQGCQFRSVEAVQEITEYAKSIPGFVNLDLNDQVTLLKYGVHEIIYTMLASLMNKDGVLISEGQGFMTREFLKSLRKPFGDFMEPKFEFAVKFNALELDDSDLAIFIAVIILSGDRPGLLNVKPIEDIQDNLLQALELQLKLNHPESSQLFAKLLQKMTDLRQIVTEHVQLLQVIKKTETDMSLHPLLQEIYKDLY

Histamine H1 receptor [6] = target: T5, Histamine H1 receptor (Homo sapiens, UniProt P35367); type: functional, cell-based
Histamine H1 receptor [7] = target: T5, Histamine H1 receptor; type: functional, cell-based; remark: listed apart in the source
[8] = target: T6, Alpha-1A adrenergic receptor (Homo sapiens, UniProt P35348)
T6 sequence (P35348 whole entry): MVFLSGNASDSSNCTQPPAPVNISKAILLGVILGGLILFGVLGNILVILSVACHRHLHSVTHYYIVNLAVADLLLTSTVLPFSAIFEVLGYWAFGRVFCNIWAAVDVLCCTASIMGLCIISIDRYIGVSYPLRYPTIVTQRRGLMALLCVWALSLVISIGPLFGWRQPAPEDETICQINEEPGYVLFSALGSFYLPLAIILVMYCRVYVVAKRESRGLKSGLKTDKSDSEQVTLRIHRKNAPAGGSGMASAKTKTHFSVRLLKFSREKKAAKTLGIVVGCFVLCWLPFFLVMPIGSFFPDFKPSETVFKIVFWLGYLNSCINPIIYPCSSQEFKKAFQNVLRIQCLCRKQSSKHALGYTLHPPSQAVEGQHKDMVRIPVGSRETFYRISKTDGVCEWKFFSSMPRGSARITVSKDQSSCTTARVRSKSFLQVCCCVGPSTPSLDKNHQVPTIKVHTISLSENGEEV
Further: assay procedure not described here.

Beta-3 adrenergic receptor, sequence (P13945 whole entry): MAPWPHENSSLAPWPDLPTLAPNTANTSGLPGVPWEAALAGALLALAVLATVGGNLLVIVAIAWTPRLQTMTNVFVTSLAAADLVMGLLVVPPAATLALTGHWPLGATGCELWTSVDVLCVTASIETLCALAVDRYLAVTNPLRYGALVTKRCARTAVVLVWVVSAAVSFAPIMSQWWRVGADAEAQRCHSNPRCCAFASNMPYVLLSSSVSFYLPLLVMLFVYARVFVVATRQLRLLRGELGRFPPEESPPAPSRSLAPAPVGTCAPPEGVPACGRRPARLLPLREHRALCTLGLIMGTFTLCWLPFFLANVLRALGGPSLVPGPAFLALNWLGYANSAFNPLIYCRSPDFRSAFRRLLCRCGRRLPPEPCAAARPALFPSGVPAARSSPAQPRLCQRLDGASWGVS
T5 sequence (P35367 whole entry): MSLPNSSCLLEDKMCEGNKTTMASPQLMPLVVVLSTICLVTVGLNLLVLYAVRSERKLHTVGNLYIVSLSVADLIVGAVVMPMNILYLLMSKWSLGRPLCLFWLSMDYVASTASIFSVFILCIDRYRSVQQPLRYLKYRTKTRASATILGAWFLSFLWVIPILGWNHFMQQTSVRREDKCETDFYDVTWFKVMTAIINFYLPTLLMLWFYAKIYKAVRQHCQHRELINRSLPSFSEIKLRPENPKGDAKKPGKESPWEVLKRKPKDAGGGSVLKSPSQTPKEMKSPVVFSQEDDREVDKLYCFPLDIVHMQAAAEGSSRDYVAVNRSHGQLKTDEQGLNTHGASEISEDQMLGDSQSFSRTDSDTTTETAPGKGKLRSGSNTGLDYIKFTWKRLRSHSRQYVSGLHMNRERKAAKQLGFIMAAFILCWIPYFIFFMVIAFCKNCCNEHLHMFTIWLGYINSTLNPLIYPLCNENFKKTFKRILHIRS
Estrogen receptor beta, sequence (Q92731 whole entry): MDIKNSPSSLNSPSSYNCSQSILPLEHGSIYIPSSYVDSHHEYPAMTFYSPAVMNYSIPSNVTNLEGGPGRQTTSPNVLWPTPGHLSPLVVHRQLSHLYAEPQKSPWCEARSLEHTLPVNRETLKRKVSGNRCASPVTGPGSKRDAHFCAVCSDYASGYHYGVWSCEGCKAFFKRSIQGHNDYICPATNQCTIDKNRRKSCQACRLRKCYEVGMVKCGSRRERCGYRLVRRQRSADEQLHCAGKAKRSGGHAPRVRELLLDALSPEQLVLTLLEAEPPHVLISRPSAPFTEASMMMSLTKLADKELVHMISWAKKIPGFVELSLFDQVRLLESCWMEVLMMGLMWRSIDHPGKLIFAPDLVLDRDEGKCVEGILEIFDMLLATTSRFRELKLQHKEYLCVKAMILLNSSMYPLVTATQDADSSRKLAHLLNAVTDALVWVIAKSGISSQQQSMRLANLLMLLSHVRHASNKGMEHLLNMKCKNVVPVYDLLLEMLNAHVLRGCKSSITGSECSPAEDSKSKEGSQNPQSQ

[H]/N=C(/N)N/C(=N/[H])NCCc1ccccc1 [PHENFORMIN]
AC50 [1]: > 30 µM
AC50 (Estrogen receptor beta): > 30 µM
AC50 [2]: > 10 µM

CC[C@@H]([C@H](C)O)n1ncn(-c2ccc(N3CCN(c4ccc(OC[C@@H]5CO[C@@](Cn6cncn6)(c6ccc(F)cc6F)C5)cc4)CC3)cc2)c1=O [POSACONAZOLE]
AC50 (Adenosine receptor A1): > 30 µM

CCC(C)C1(CC)C(=O)NC(=O)NC1=O (stereo unspecified) [BUTABARBITAL]
AC50 (Androgen receptor [3]): > 30 µM
AC50 (Androgen receptor [4]): > 30 µM
AC50 [5]: > 30 µM

Oc1ccc2c(c1)CC[C@H](c1ccccc1)[C@@H]2c1ccc(OCCN2CCCC2)cc1 [LASOFOXIFENE]
AC50 (Androgen receptor [3]): > 30 µM
AC50 (Androgen receptor [4]): 23 µM
AC50 [5]: > 30 µM

Cc1cccc(N2CC(CO)OC2=O)c1 (stereo unspecified) [TOLOXATONE]
AC50 (Androgen receptor [3]): > 30 µM
AC50 (Androgen receptor [4]): > 30 µM

C[C@]12CC[C@@H]3c4ccc(O)cc4C[C@@H](CCCCCCCCC[S+]([O-])CCCC(F)(F)C(F)(F)F)[C@H]3[C@@H]1CC[C@@H]2O (stereo partly specified) [FULVESTRANT]
AC50 (Androgen receptor [3]): > 30 µM
AC50 (Histamine H1 receptor [6]): > 30 µM
AC50 (Histamine H1 receptor [7]): > 30 µM
AC50 [5]: > 30 µM

CC(N)C(O)c1ccccc1 (stereo unspecified) [PHENYLPROPANOLAMINE]
AC50 [1]: > 30 µM
AC50 [2]: > 10 µM
AC50 [8]: > 10 µM

OC1(c2ccc(Cl)cc2)c2ccccc2C2=NCCN21 (stereo unspecified) [MAZINDOL]
AC50 [1]: > 30 µM
AC50 (Androgen receptor [3]): > 30 µM
AC50 (Androgen receptor [4]): > 30 µM
AC50 (Estrogen receptor beta): > 30 µM
AC50 [2]: > 10 µM
AC50 [8]: > 10 µM

C=CCNc1nc(NCC=C)nc(N2CCN(C(c3ccc(F)cc3)c3ccc(F)cc3)CC2)n1 [ALMITRINE]
AC50 (Androgen receptor [3]): > 30 µM
AC50 (Androgen receptor [4]): > 30 µM

COCC1=C(C(=O)O)N2C(=O)[C@@H](NC(=O)/C(=N\OC)c3csc(N)n3)[C@H]2SC1 [CEFPODOXIME]
AC50 (Androgen receptor [3]): > 30 µM
AC50 (Androgen receptor [4]): > 30 µM

O=C(O)c1cn(C2CC2)c2cc(N3CCNCC3)c(F)cc2c1=O [CIPROFLOXACIN]
AC50 (Adenosine receptor A1): > 30 µM
AC50 (Estrogen receptor beta): > 30 µM

CC(C)NCC(O)c1ccc(O)c(O)c1 (stereo unspecified) [ISOPROTERENOL]
AC50 (Estrogen receptor beta): > 30 µM
AC50 [2]: > 10 µM

CCC(=O)O[C@]1(C(=O)SCF)[C@H](C)C[C@H]2[C@@H]3C[C@H](F)C4=CC(=O)C=C[C@]4(C)[C@@]3(F)[C@@H](O)C[C@@]21C [FLUTICASONE PROPIONATE]
AC50 [1]: > 30 µM
AC50 [2]: > 10 µM
AC50 [8]: > 10 µM

CC(CCc1ccc(O)cc1)NCCc1ccc(O)c(O)c1 (stereo unspecified) [DOBUTAMINE]
AC50 [1]: > 30 µM
AC50 (Estrogen receptor beta): > 30 µM
AC50 [2]: > 10 µM
AC50 [8]: 0.0704 µM

CC(=O)O[C@]1(C(C)=O)CC[C@H]2[C@@H]3C=C(Cl)C4=CC(=O)CC[C@]4(C)[C@H]3CC[C@@]21C [CHLORMADINONE ACETATE]
AC50 (Adenosine receptor A1): > 30 µM

Clc1ccc2c(N3CCN(CCCN4CCN(c5ccnc6cc(Cl)ccc56)CC4)CC3)ccnc2c1 [PIPERAQUINE]
AC50 (Androgen receptor [3]): > 30 µM
AC50 (Androgen receptor [4]): > 30 µM

CCN(CC)C(=S)S [DITIOCARB]
AC50 (Adenosine receptor A1): > 30 µM

CC(=O)N[C@@H](CS)C(=O)O [ACETYLCYSTEINE]
AC50 (Histamine H1 receptor [6]): > 30 µM
AC50 (Histamine H1 receptor [7]): > 30 µM

O=[N+]([O-])c1ccc(O)c2ncccc12 [NITROXOLINE]
AC50 (Adenosine receptor A1): > 30 µM

C/N=C(\NC)NCc1ccccc1 [BETHANIDINE]
AC50 [5]: > 30 µM

CN(C)CCCNc1c2ccccc2nc2cccc([N+](=O)[O-])c12 [NITRACRINE]
AC50 (Androgen receptor [3]): > 30 µM
AC50 (Androgen receptor [4]): > 30 µM

CN1CCC(=C2c3ccccc3CCc3cccnc32)CC1 [AZATADINE]
AC50 (Histamine H1 receptor [6]): > 30 µM
AC50 (Histamine H1 receptor [7]): 0.0665 µM
AC50 [2]: 0.064 µM

CCOC(=O)C1=C(C)NC(C)=C(C(=O)OC)C1c1cccc([N+](=O)[O-])c1 (stereo unspecified) [NITRENDIPINE]
AC50 [1]: 15.1 µM
AC50 (Estrogen receptor beta): > 30 µM
AC50 [2]: > 10 µM

CC12CC3CC(C)(C1)CC(N)(C3)C2 [MEMANTINE]
AC50 [1]: 20.1 µM
AC50 (Estrogen receptor beta): > 30 µM
AC50 (Histamine H1 receptor [6]): > 30 µM
AC50 (Histamine H1 receptor [7]): > 30 µM

CCC(C)C(CC)C(N)=O (stereo unspecified) [VALNOCTAMIDE]
AC50 (Androgen receptor [3]): > 30 µM
AC50 (Androgen receptor [4]): > 30 µM
AC50 (Histamine H1 receptor [6]): > 30 µM
AC50 (Histamine H1 receptor [7]): > 30 µM

CC(C)COCC(CN(Cc1ccccc1)c1ccccc1)N1CCCC1 (stereo unspecified) [BEPRIDIL]
AC50 [1]: 11.9 µM
AC50 (Estrogen receptor beta): > 30 µM
AC50 [5]: > 30 µM

Cc1cnc(C(=O)NCCc2ccc(S(=O)(=O)NC(=O)NC3CCCCC3)cc2)cn1 [GLIPIZIDE]
AC50 (Adenosine receptor A1): > 30 µM
AC50 [1]: > 30 µM
AC50 (Estrogen receptor beta): > 30 µM
AC50 [8]: > 10 µM

CCOC(=O)[C@H](CCc1ccccc1)N[C@@H](C)C(=O)N(CC(=O)O)C1Cc2ccccc2C1
AC50 (Adenosine receptor A1): > 30 µM

CCC[C@H](NC(=O)[C@@H]1[C@H]2CCC[C@H]2CN1C(=O)[C@@H](NC(=O)[C@@H](NC(=O)c1cnccn1)C1CCCCC1)C(C)(C)C)C(=O)C(=O)NC1CC1
AC50 [1]: > 30 µM
AC50 [2]: > 10 µM

CN1CCN(C2=Nc3ccccc3Oc3ccc(Cl)cc32)CC1 [LOXAPINE]
AC50 [1]: > 30 µM
AC50 (Estrogen receptor beta): > 30 µM
AC50 [8]: 0.169 µM

C[C@H](Cc1ccc(O)c(O)c1)[C@@H](C)Cc1ccc(O)c(O)c1 [MASOPROCOL]
AC50 (Histamine H1 receptor [6]): > 30 µM
AC50 (Histamine H1 receptor [7]): 23 µM
AC50 [5]: > 30 µM

C=C1CC[C@H](O)C/C1=C/C=C1\CCC[C@]2(C)[C@@H]([C@H](C)/C=C/[C@H](C)C(C)C)CC[C@@H]12 [ERGOCALCIFEROL]
AC50 (Adenosine receptor A1): > 30 µM
